In one assay the target is HLA-B*08:01 (Homo sapiens, UniProt P01889, A93T/A95T/D138N/E176V/E187T/K202T/Q94N/R180D/S35A/V36M/Y33D/Y91F). The assay can be described thus: biochemical. Type of assay: binding.
A further assay concerns the target HLA-B*07:02 (Homo sapiens, UniProt P01889). The assay can be described thus: biochemical. The assay is classed as binding.
For a further assay, the target named is HLA-B*44:02 (Homo sapiens, UniProt P01889, A223V/A65T/A93T/A95T/D201E/D98Y/E176V/E187L/E204Q/E69K/G107R/H137Y/K202T/L105A/L119I/N104T/N87E/Q56L/Q94N/R106L/R155S/R180D/S101N/S121R/S35A/S48T/T118I/V36M/W191S/Y140D/Y91S). The assay can be described thus: biochemical. The assay is classed as binding.
In another assay the target is HLA-B*40:01 (Homo sapiens, UniProt P01889, A65T/A93T/A95T/D138N/D98Y/E176V/E69K/N87E/Q56L/Q94N/R180L/S121R/S35A/S48T/T167S/V36M/W171L/Y33H/Y91S). The assay can be described thus: biochemical. The assay is classed as binding.
A further assay deals with HLA-A*24:02 (Homo sapiens, UniProt P04439, D101N/D140Y/D185E/E176V/E190D/F33S/G103R/G107R/I119L/I121M/I306V/K335N/L105A/L180Q/L300P/N151K/N90K/Q86E/Q94H/R106L/R138H/R89G/T104I/T345S/V100E/W191G/Y123F). The assay can be described thus: biochemical. Type of assay: binding.
For the next assay, the target named is HLA-A*23:01 (Homo sapiens, UniProt P04439, D101N/D140Y/D185E/E176V/E190D/F33S/G103R/G107R/H175R/I119L/I121M/I306V/K168Q/K335N/L105A/L300P/N151K/N90K/P307H/Q86E/Q94H/R106L/R138H/R89G/T104I/T345S/V100E/W191G/Y123F). The assay can be described thus: biochemical. Type of assay: binding.
The target of a further assay is HLA-A*30:01 (Homo sapiens, UniProt P04439, D140H/D185E/E176W/F33S/G80R/H175R/K168Q/R138E/R41S). The assay can be described thus: biochemical. Type of assay: binding.
For another assay, the target named is HLA-A*03:01 (Homo sapiens, UniProt P04439). The assay can be described thus: biochemical. The assay is classed as binding.
The target of a further assay is HLA-A*32:01 (Homo sapiens, UniProt P04439, A270S/D101S/D185E/E176V/E277Q/F133L/G103R/G107R/G231S/H175R/I121M/I218V/I322F/K168Q/L105A/L300P/L318F/M331R/P208A/P217A/Q94H/R106L/R138Q/S129P/T104I/T323A/T345S/V100E/V321M/V358M). The assay can be described thus: biochemical. The assay is classed as binding.
In another assay the target is HLA-A*02:01 (Homo sapiens, UniProt P04439, D140Y/D185E/D98H/E176V/E277Q/G131W/G231S/I119V/I121R/I166T/I218V/L300P/L318F/N151K/N90K/P208A/P217A/Q86G/Q94H/R138H/R169H/T345S). The assay can be described thus: biochemical. The assay is classed as binding.
For another assay, the target named is HLA-A*02:03 (Homo sapiens, UniProt P04439, A173T/D140Y/D185E/D98H/E277Q/G131W/G231S/I119V/I121R/I166T/I218V/L180W/L300P/L318F/N151K/N90K/P208A/P217A/Q86G/Q94H/R138H/R169H/T345S). The assay can be described thus: biochemical. Type of assay: binding.
Another assay concerns the target HLA-A*68:02 (Homo sapiens, UniProt P04439, A269V/D140Y/D185E/E176V/E277Q/E87N/F33Y/G231S/I121R/I166T/I218V/L180W/L300P/L318F/N151K/P208A/P217A/Q86R/R138H/R169H/S129P/T345S/V36M). The assay can be described thus: biochemical. The assay is classed as binding.
The target in the next assay is HLA-A*02:06 (Homo sapiens, UniProt P04439, D140Y/D185E/D98H/E176V/E277Q/F33Y/G131W/G231S/I119V/I121R/I166T/I218V/L300P/L318F/N151K/N90K/P208A/P217A/Q86G/Q94H/R138H/R169H/T345S). The assay can be described thus: biochemical. Type of assay: binding.
The test system of assay [1] is Mafa-A63:02 MHC class I molecules. Type of assay: binding, Macaca fascicularis.
Another assay deals with HLA-B*27:05 (Homo sapiens, UniProt P01889, D138H/D201E/E176V/E204Q/G107R/H137Y/K202T/N104T/N87E/Q56L/Q94K/R106L/R155S/R180L/S101D/S121N/S48T/Y140D/Y33H/Y91C). The assay can be described thus: biochemical. Type of assay: binding.
Another assay concerns the target HLA-B*15:01 (Homo sapiens, UniProt P01889, A329T/A93T/A95T/C349S/D201E/D98Y/E187L/E204Q/E69M/E70A/K202T/N87E/Q94N/R155S/R180W/S121R/S35A/S48A/V306I/V36M/Y140S/Y91S). The assay can be described thus: biochemical. Type of assay: binding.
In another assay the target is HLA-A*30:02 (Homo sapiens, UniProt P04439, D101N/D140H/D185E/E176R/F33S/G80R/H175R/K168Q/Q94H/R138E/R41S/V100E). The assay can be described thus: biochemical. The assay is classed as binding.

Where a SMILES comes first, the peptide text is derived from it.

By IC50 is commonly meant the point on the concentration scale where inhibition reaches its midpoint. Low readings indicate greater potency in that assay, high ones weaker potency in that assay.

With `CC(C)C[C@H](NC(=O)[C@H](CC(N)=O)NC(=O)[C@H](CC(C)C)NC(=O)[C@@H](NC(=O)[C@H](CCCNC(=N)N)NC(=O)[C@H](C)NC(=O)[C@H](Cc1ccccc1)NC(=O)[C@@H]1CCCN1C(=O)[C@H](C)N)C(C)C)C(=O)O` [AL9] (H-APFARVLNL-OH), the values for the IC50 against HLA-B*08:01 and at HLA-B*07:02 were 67 nM and 0.21 nM, respectively.
For the molecule `CC(C)C[C@H](NC(=O)[C@H](CCC(N)=O)NC(=O)[C@@H]1CCCN1C(=O)[C@H](Cc1ccc(O)cc1)NC(=O)[C@H](CC(C)C)NC(=O)CNC(=O)[C@H](Cc1c[nH]cn1)NC(=O)[C@H](CCC(=O)O)NC(=O)[C@@H](N)CC(C)C)C(=O)O` (H-LEHGLYPQL-OH), the IC50 at HLA-B*44:02 came to 3.4 nM; at HLA-B*40:01, 14 nM.
Consider `CC[C@H](C)[C@H](NC(=O)[C@H](CC(C)C)NC(=O)[C@@H]1CCCN1C(=O)[C@H](CO)NC(=O)[C@H](Cc1ccc(O)cc1)NC(=O)[C@@H](N)Cc1c[nH]cn1)C(=O)N[C@@H](CC(C)C)C(=O)N[C@@H](C)C(=O)N[C@@H](CC(C)C)C(=O)O` [HL9] (H-HYSPLILAL-OH), for which the IC50 on HLA-A*24:02 turned out to be 64 nM.
In the case of `CC(C)C[C@H](NC(=O)[C@H](CO)NC(=O)[C@H](CS)NC(=O)[C@H](Cc1ccccc1)NC(=O)[C@H](CO)NC(=O)[C@H](CC(C)C)NC(=O)[C@H](Cc1ccccc1)NC(=O)[C@@H](N)CC(C)C)C(=O)N[C@@H](Cc1ccccc1)C(=O)O` [reference compound] (H-LFLSFCSLF-OH), the IC50 was 33 nM on HLA-A*23:01 and 633 nM against HLA-A*24:02.
Take `CC[C@H](C)[C@H](NC(=O)[C@H](Cc1ccccc1)NC(=O)[C@H](CCC(=O)O)NC(=O)[C@H](CC(C)C)NC(=O)[C@@H](NC(=O)[C@@H](N)[C@@H](C)O)C(C)C)C(=O)N[C@@H](CC(C)C)C(=O)N[C@@H](CCC(N)=O)C(=O)N[C@@H](CCCCN)C(=O)O` (H-TVLEFILQK-OH): the values for the IC50 on HLA-A*30:01 and against HLA-A*03:01 were 365 nM and 19 nM, respectively.
`CC[C@H](C)[C@H](NC(=O)[C@H](CC(C)C)NC(=O)[C@@H](N)CC(C)C)C(=O)N[C@H](C(=O)N[C@@H](CCCCN)C(=O)N[C@H](C(=O)N[C@H](C(=O)N[C@@H](CC(C)C)C(=O)O)C(C)C)[C@@H](C)O)C(C)C` [reference compound] (H-LLIVKTVL-OH) registered an IC50 against HLA-B*08:01 of 6.1 nM.
For `CC[C@H](C)[C@H](NC(=O)[C@H](C)NC(=O)[C@H](CO)NC(=O)[C@H](CC(C)C)NC(=O)[C@@H](N)CCC(N)=O)C(=O)N[C@@H](C)C(=O)N[C@@H](CC(C)C)C(=O)NCC(=O)N[C@H](C(=O)O)C(C)C` (H-QLSAIALGV-OH), the IC50 came out at 81 nM on HLA-A*32:01; 3.9 nM at HLA-A*02:01; 4.4 nM at HLA-A*02:03; 11 nM against HLA-A*68:02; 12 nM on HLA-A*02:06.
Regarding `CC(C)C[C@H](NC(=O)[C@H](Cc1ccccc1)NC(=O)[C@H](CC(C)C)NC(=O)[C@H](CO)NC(=O)[C@H](CS)NC(=O)[C@H](Cc1ccccc1)NC(=O)[C@H](CO)NC(=O)[C@H](CC(C)C)NC(=O)[C@@H](N)Cc1ccccc1)C(=O)O` [reference compound] (H-FLSFCSLFL-OH), the IC50 against HLA-A*02:01 came out at 1.8 nM; against HLA-A*02:03 it was 29 nM; against HLA-A*02:06, 121 nM.
`CC[C@H](C)[C@H](NC(=O)[C@H](C)NC(=O)[C@H](CO)NC(=O)[C@H](CC(C)C)NC(=O)[C@H](CCC(N)=O)NC(=O)[C@@H]1CCCN1C(=O)[C@H](Cc1ccc(O)cc1)NC(=O)[C@@H](N)CC(C)C)C(=O)N[C@@H](C)C(=O)N[C@@H](CC(C)C)C(=O)O` [LYPQLSAIAL, reference compound] (H-LYPQLSAIAL-OH) had an IC50 against HLA-B*07:02 of 134 nM.
For HPAQTSQW, in assay [1], the “score on the t-SNE T2 axis (Mafa-A063 binding affinity and stability)” value was “scored high”.
As to `CC[C@H](C)[C@H](NC(=O)[C@H](CC(C)C)NC(=O)[C@H](CC(C)C)NC(=O)CNC(=O)[C@H](CO)NC(=O)[C@H](Cc1ccccc1)NC(=O)[C@H](CCCNC(=N)N)NC(=O)[C@@H](NC(=O)[C@@H](N)CCC(N)=O)[C@@H](C)O)C(=O)N[C@H](C(=O)O)C(C)C` (H-QTRFSGLLIV-OH), the figures for the IC50 at HLA-B*27:05, against HLA-A*30:01 and at HLA-B*15:01 were 533 nM, 421 nM and 4680 nM, respectively.
`CC(C)[C@H](NC(=O)[C@H](CCCNC(=N)N)NC(=O)[C@H](C)NC(=O)[C@H](Cc1ccccc1)NC(=O)[C@@H]1CCCN1C(=O)[C@H](C)NC(=O)[C@H](Cc1ccc(O)cc1)NC(=O)[C@H](CCC(=O)O)NC(=O)CN)C(=O)O` (H-GEYAPFARV-OH): the IC50 against HLA-B*44:02 was 214 nM; against HLA-B*40:01, 107 nM.
Turning to `CC[C@H](C)[C@H](NC(=O)[C@H](C)NC(=O)[C@H](CO)NC(=O)[C@H](CC(C)C)NC(=O)[C@H](CCC(N)=O)NC(=O)[C@@H]1CCCN1C(=O)[C@H](Cc1ccc(O)cc1)NC(=O)[C@H](CC(C)C)NC(=O)CN)C(=O)O` (H-GLYPQLSAI-OH), the IC50 against HLA-A*02:01 stood at 5.9 nM; against HLA-A*02:03, 1.4 nM; against HLA-A*02:06, 6.9 nM.
Consider `CC[C@H](C)[C@H](NC(=O)[C@@H](N)CC(C)C)C(=O)N[C@H](C(=O)N[C@@H](CCCCN)C(=O)N[C@H](C(=O)N[C@H](C(=O)N[C@@H](CC(C)C)C(=O)N[C@@H](CCC(=O)O)C(=O)N[C@@H](Cc1ccccc1)C(=O)O)C(C)C)[C@@H](C)O)C(C)C` (H-LIVKTVLEF-OH), for which the IC50 against HLA-A*23:01 was determined as 109 nM; on HLA-B*15:01 it was 0.8 nM.
As to `CC(C)[C@H](NC(=O)[C@H](CCC(=O)O)NC(=O)[C@H](CC(N)=O)NC(=O)[C@H](CCCCN)NC(=O)[C@@H](NC(=O)[C@@H](N)CCCCN)C(C)C)C(=O)N[C@@H](C)C(=O)N[C@@H](CO)C(=O)N[C@@H](Cc1ccccc1)C(=O)O` [KF9] (H-KVKNEVASF-OH), the concentration for half-maximal inhibition (IC50) turned out to be 2.9 nM on HLA-A*32:01, 158 nM against HLA-A*30:02 and 5.6 nM against HLA-B*15:01.
For the molecule GPRKPIKCW, the “score on the t-SNE T2 axis (Mafa-A063 binding affinity and stability)” value in assay [1] was “scored high”.
The same measure, in the same setting: with RPKVPLRTM the entry was “scored high”.

The values above are taken from publication PMC10976095 (Vaccines, 2024).
